Assay results taken from patent US20240315297A1, “STEVIOL GLYSOCIDE SOLUBILITY ENHANCERS” (CARGILL, INCORPORATED, priority 2017, published 2024).

Tests used:
[1] = Observation of samples for solubility/precipitation in water (Example 9); type: physicochemical; details: for time over which a soluble solution was promoted: 0.3% steviol glycoside mixture, 5:1 molar ratio of acid to steviol glycoside
[2] = type: physicochemical
Source text: The composition can optionally be expressed in terms of the concentration of one or more steviol glycoside(s). […] Clear solutions without precipitates are considered soluble. Unless indicated otherwise herein, the term “solubility” refers to “equilibrium solubility.”

[3] = sensory evaluation; cited from earlier work

| Compound | time over which a soluble solution was promoted [1] [days] | equilibrium solubility [2] | instantaneous solubility [2] | also measured |
| --- | --- | --- | --- | --- |
| O=C(O)c1cc(O)c(O)c(O)c1 [Gallic acid] | – | – | – | colour imparted to the sample solutions ([1]; more apparent at higher concentrations, observed after about 3 days): brownish tinge |
| O=C(O)c1cc(C(=O)O)c(C(=O)O)cc1C(=O)O [Pyromellitic acid] | 3 | – | – | – |
| C=C1C[C@@]23CC[C@H]4[C@@](C)(CCC[C@@]4(C)C(=O)O[C@@H]4O[C@H](CO)[C@@H](O)[C@H](O)[C@H]4O[C@@H]4O[C@H](CO)[C@@H](O)[C@H](O)[C@H]4O)[C@@H]2CC[C@]1(O[C@@H]1O[C@H](CO)[C@@H](O)[C@H](O[C@@H]2O[C@H](CO)[C@@H](O)[C@H](O)[C@H]2O)[C@H]1O[C@@H]1O[C@H](CO)[C@@H](O)[C@H](O)[C@H]1O)C3 [Rebaudioside D, rebaudioside D] | – | 0.08% | less than 0.08% | times sweeter than sucrose [3]: 200-220 times |

Further lines, with some results ahead:

| time over which a soluble solution was promoted [1] [days] | equilibrium solubility [2] | instantaneous solubility [2] | Compound | also measured |
| --- | --- | --- | --- | --- |
| 3 | – | – | O=C(O)C(O)c1ccccc1 (centres unmarked) [Mandelic acid] | – |
| – | about 0.2% | about 0.13% | C=C1C[C@@]23CC[C@H]4[C@@](C)(CCC[C@@]4(C)C(=O)O[C@@H]4O[C@H](CO)[C@@H](O)[C@H](O[C@@H]5O[C@H](CO)[C@@H](O)[C@H](O)[C@H]5O)[C@H]4O[C@@H]4O[C@H](CO)[C@@H](O)[C@H](O)[C@H]4O)[C@@H]2CC[C@]1(O[C@@H]1O[C@H](CO)[C@@H](O)[C@H](O[C@@H]2O[C@H](CO)[C@@H](O)[C@H](O)[C@H]2O)[C@H]1O[C@@H]1O[C@H](CO)[C@@H](O)[C@H](O)[C@H]1O)C3 [Rebaudioside M, rebaudioside M] | – |
